Here are results for 19 molecules from patent publication US20230117034A1, “PYRAZOLOTRIAZINES” (Bayer Aktiengesellschaft, priority 2019, published 2023).

Format in all cases: cell-based
In experiment [1] the target is T1, CDK12 (nuclear staining in CAL-120 cells) (Homo sapiens, UniProt Q9NYV4).
T1 construct: endogenous in cells; host or cells: CAL-120 human breast cancer cells (DSMZ ACC 459)
Kind of experiment: CDK12 nuclear protein level: immunofluorescence/high content analysis (CAL-120). The following applies: for DC50: CAL-120 cells, 24 h, immunofluorescence, 50% reduction of nuclear CDK12 staining intensity, median, read-out: CDK12 degradation IF, DC50- [mol/l] (median); for (IC50 CDK12 high ATP) to (Degradation DC50 CDK12) ratio: ratio of IC50 CDK12 high ATP kinase assay to DC50 CDK12 degradation (IF, CAL-120). A digest of the protocol:
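CAL-120 cells were treated with compound for 24 h at 37 °C, fixed with PFA and immunostained for CDK12. Nuclear CDK12 intensity was quantified by automated image analysis and normalized to DMSO and control. DC50 is the concentration giving 50% reduction of nuclear staining.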

For experiment [2], the system named is CAL-120, human breast adenocarcinoma cells. Briefly: Proliferation assay CAL-120 (crystal violet, 4 days). The following applies: Homo sapiens, CAL-120, 96 h, CAL-120 cells, median, read-out: Prolif-CAL-120, IC50-[mol/l] (median). A digest of the protocol:
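Plated 4,000 cells/well, 10% FCS; 24 h later treated 0.01-10 µmol/L cpd (DMSO 0.1%), 4 d. Fix glutaraldehyde, stain 0.1% crystal violet pH 3.0, elute acetic acid, A595. Normalized to t0 plate/untreated; 4-param IC50.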

Experiment [3] has as its target T2, CYCLIN K (nuclear staining in CAL-120 cells) (Homo sapiens, UniProt O75909).
T2 construct: endogenous in cells; host or cells: CAL-120 human breast cancer cells (DSMZ ACC 459)
Briefly: CYCLIN K nuclear protein level: immunofluorescence high content analysis (CAL-120). The following applies: 24 h, 50% reduction of nuclear CCNK staining intensity, median, read-out: CYCLIN K degradation IF, DC50-[mol/l] (median). A digest of the protocol: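 CAL-120 breast cancer cells treated in dose-response for 24 h at 37 °C, PFA-fixed and immunostained for cyclin K with Hoechst counterstain. Confocal imaging quantified nuclear intensity; DC50 is the concentration giving 50% reduction of nuclear CCNK staining, normalized to DMSO and control.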

T2 sequence (O75909 whole entry): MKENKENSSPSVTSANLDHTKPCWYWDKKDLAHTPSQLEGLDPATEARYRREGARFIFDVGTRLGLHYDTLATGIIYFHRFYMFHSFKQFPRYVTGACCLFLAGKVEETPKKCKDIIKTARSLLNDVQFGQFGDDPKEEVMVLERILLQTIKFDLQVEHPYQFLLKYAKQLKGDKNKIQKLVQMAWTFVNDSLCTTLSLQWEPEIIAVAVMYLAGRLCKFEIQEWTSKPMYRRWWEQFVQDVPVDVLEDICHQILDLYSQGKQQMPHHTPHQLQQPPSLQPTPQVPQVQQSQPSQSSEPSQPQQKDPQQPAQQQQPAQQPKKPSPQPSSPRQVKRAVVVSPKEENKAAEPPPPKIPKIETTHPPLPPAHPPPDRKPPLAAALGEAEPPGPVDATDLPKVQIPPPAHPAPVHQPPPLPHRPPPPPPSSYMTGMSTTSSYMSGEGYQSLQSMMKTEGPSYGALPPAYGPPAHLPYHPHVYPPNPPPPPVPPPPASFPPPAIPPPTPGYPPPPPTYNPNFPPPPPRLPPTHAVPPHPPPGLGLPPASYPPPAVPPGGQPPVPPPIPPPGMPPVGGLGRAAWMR
T2 sequence (Q9NYV4 whole entry partner): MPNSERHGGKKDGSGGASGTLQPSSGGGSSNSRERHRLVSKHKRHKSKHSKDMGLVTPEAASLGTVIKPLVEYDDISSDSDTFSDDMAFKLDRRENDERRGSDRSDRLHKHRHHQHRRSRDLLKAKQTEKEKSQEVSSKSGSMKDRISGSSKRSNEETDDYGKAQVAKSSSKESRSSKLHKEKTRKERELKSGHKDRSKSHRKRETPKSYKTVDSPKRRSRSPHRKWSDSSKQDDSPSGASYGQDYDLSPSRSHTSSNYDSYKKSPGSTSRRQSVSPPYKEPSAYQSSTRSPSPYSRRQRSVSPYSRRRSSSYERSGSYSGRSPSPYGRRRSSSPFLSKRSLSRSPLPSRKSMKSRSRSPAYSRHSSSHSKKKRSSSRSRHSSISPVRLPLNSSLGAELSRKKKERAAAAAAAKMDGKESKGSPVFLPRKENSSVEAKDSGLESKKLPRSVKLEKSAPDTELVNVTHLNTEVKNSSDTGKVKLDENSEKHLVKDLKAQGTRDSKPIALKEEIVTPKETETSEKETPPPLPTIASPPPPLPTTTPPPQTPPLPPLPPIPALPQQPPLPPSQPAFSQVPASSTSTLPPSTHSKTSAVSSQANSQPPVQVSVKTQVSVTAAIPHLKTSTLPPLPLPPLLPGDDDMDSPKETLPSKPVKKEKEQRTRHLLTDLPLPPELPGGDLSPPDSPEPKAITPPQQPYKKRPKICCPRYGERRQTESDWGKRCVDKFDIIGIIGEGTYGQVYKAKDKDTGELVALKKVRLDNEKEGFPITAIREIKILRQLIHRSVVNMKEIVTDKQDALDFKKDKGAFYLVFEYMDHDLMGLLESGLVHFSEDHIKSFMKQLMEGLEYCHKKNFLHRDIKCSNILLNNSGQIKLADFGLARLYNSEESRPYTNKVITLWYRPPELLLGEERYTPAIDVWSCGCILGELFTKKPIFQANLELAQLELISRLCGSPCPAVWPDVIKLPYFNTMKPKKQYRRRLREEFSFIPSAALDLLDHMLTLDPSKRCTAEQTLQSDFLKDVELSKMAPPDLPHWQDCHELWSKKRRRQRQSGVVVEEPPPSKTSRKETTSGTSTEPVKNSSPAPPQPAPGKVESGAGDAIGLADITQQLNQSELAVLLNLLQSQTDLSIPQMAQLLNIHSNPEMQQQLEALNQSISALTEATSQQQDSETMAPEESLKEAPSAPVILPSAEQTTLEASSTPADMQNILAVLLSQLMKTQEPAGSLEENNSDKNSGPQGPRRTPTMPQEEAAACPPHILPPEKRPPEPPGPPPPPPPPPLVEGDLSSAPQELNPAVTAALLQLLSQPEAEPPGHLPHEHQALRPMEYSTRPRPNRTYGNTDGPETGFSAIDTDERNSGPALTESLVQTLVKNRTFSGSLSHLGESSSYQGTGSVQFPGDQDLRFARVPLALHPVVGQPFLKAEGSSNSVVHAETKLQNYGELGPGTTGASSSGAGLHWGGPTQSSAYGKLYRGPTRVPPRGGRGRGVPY
T1 sequence (Q9NYV4 whole entry): as the sequence (Q9NYV4 whole entry partner) above
T1 sequence (O75909 whole entry partner): as the sequence (O75909 whole entry) above

Consider `FC(F)(F)c1cccc(-c2cnc(CNc3nc(N4CCOCC4)nc4c(Br)cnn34)[nH]2)c1` [Example 83, 8-bromo-2-(morpholin-4-yl)-N-({5-[3-(trifluoromethyl)phenyl]-1H-imidazol-2-yl}methyl)pyrazolo[1,5-a][1,3,5]triazin-4-amine], for which the results for the DC50 in experiment [1] and in experiment [3] were 9.37 nM and 1.78 nM, respectively. Besides, in experiment [1], the “(IC50 CDK12 high ATP) to (Degradation DC50 CDK12) ratio” value came to 111. Besides, the IC50 in experiment [2] was 12.1 nM.
On to `Clc1cccc(-c2cnc(CNc3nc(N4CCOCC4)nc4c(Br)cnn34)[nH]2)c1` [Example 81, 8-bromo-N-{[5-(3-chlorophenyl)-1H-imidazol-2-yl]methyl}-2-(morpholin-4-yl)pyrazolo[1,5-a][1,3,5]triazin-4-amine], for which the figures for the DC50 in experiment [1] and in experiment [3] were 5.31 nM and 3.87 nM, respectively. In addition, the “(IC50 CDK12 high ATP) to (Degradation DC50 CDK12) ratio” value in experiment [1] is on record as 144. Besides, in experiment [2], the IC50 came out at 4.14 nM.
Regarding `Fc1ccccc1-c1nnc(CNc2nc(N3CCOCC3)nc3c(Br)cnn23)[nH]1` [Example 75, 8-bromo-N-{[5-(2-fluorophenyl)-4H-1,2,4-triazol-3-yl]methyl}-2-(morpholin-4-yl)pyrazolo[1,5-a][1,3,5]triazin-4-amine], in experiment [1], the DC50 amounted to 7.38 nM and the “(IC50 CDK12 high ATP) to (Degradation DC50 CDK12) ratio” value is greater than 511. The IC50 in experiment [2] came to 53.2 nM. For the same molecule, in experiment [3], the DC50 was found to be 8.7 nM.
With `c1ccc(-c2nnc(CNc3nc(N4CCOCC4)nc4c(C5CC5)cnn34)[nH]2)cc1` [Example 93, 8-cyclopropyl-2-(morpholin-4-yl)-N-[(5-phenyl-4H-1,2,4-triazol-3-yl)methyl]pyrazolo[1,5-a][1,3,5]triazin-4-amine], in experiment [1], the DC50 came out at 23.3 nM and the “(IC50 CDK12 high ATP) to (Degradation DC50 CDK12) ratio” value was determined as 116. In addition, in experiment [2], the IC50 is 100 nM. For the same molecule, the DC50 in experiment [3] worked out at 17.3 nM.
With `CCc1cnn2c(NCc3nc4c(F)c(F)ccc4[nH]3)nc(N3CCN(C)CC3)nc12.O=CO` [Example 435, formic acid N-[(4,5-difluoro-1H-benzimidazol-2-yl)methyl]-8-ethyl-2-(4-methylpiperazin-1-yl)pyrazolo[1,5-a][1,3,5]triazin-4-amine], in experiment [1], the DC50 came to 0.591 nM and the “(IC50 CDK12 high ATP) to (Degradation DC50 CDK12) ratio” value is listed as 9674. Further, the IC50 in experiment [2] was found to be 1.76 nM. Further, in experiment [3], the DC50 came out at 0.274 nM.
`FC(F)(F)Oc1ccccc1-c1cnc(CNc2nc(N3CCOCC3)nc3c(Br)cnn23)[nH]1` [Example 89, 8-bromo-2-(morpholin-4-yl)-N-({5-[2-(trifluoromethoxy)phenyl]-1H-imidazol-2-yl}methyl)pyrazolo[1,5-a][1,3,5]triazin-4-amine]: in experiment [1], the DC50 was 7.3 nM and the “(IC50 CDK12 high ATP) to (Degradation DC50 CDK12) ratio” value is 1471. Moreover, the IC50 in experiment [2] was determined as 32.9 nM. Moreover, the DC50 in experiment [3] was found to be 1.43 nM.
In the case of `Clc1ccc(-c2cnc(CNc3nc(N4CCOCC4)nc4c(Br)cnn34)[nH]2)cc1` [Example 72, 8-bromo-N-{[5-(4-chlorophenyl)-1H-imidazol-2-yl]methyl}-2-(morpholin-4-yl)pyrazolo[1,5-a][1,3,5]triazin-4-amine], in experiment [1], the DC50 was determined as 10 nM and the “(IC50 CDK12 high ATP) to (Degradation DC50 CDK12) ratio” value was 55. The IC50 in experiment [2] came out at 32.4 nM. Also, in experiment [3], the DC50 amounted to 11.4 nM.
`COc1ccccc1-c1cnc(CNc2nc(N3CCOCC3)nc3c(Br)cnn23)[nH]1` [Example 87, 8-bromo-N-{[5-(2-methoxyphenyl)-1H-imidazol-2-yl]methyl}-2-(morpholin-4-yl)pyrazolo[1,5-a][1,3,5]triazin-4-amine]: the DC50 in experiment [1] was 2.16 nM; in experiment [3], 0.667 nM. The “(IC50 CDK12 high ATP) to (Degradation DC50 CDK12) ratio” value in experiment [1] was 1196. In addition, the IC50 in experiment [2] is 6.58 nM.
On the same counts, the results for `COC1CCN(c2nc(NCc3nc4ccccc4[nH]3)n3ncc(Br)c3n2)CC1` [Example 62, N-[(1H-benzimidazol-2-yl)methyl]-8-bromo-2-(4-methoxypiperidin-1-yl)pyrazolo[1,5-a][1,3,5]triazin-4-amine] are 10 nM, 2.27 nM, 569 and 32.5 nM.
`C[C@@H]1CN(c2nc(NCc3nc4ccccc4[nH]3)n3ncc(Br)c3n2)C[C@H](C)O1` [Example 73, N-[(1H-benzimidazol-2-yl)methyl]-8-bromo-2-[(2R,6S)-2,6-dimethylmorpholin-4-yl]pyrazolo[1,5-a][1,3,5]triazin-4-amine]: in experiment [1], the DC50 turned out to be 5.15 nM and the “(IC50 CDK12 high ATP) to (Degradation DC50 CDK12) ratio” value is 129. Further, the IC50 in experiment [2] stood at 23 nM. Also, the DC50 in experiment [3] worked out at 0.735 nM.
Turning to `Cc1ccccc1-c1cnc(CNc2nc(N3CCOCC3)nc3c(Br)cnn23)[nH]1` [Example 85, 8-bromo-N-{[5-(2-methylphenyl)-1H-imidazol-2-yl]methyl}-2-(morpholin-4-yl)pyrazolo[1,5-a][1,3,5]triazin-4-amine], in experiment [1], the DC50 came to 5.57 nM and the “(IC50 CDK12 high ATP) to (Degradation DC50 CDK12) ratio” value was 1137. Moreover, the IC50 in experiment [2] came out at 26.3 nM. In experiment [3], the DC50 turned out to be 1.2 nM.
In the case of `COC(=O)C1CCN(c2nc(NCc3nc4ccccc4[nH]3)n3ncc(Br)c3n2)CC1` [Example 63, methyl 1-(4-{[(1H-benzimidazol-2-yl)methyl]amino}-8-bromopyrazolo[1,5-a][1,3,5]triazin-2-yl)piperidine-4-carboxylate], in experiment [1], the DC50 came to 20.7 nM and the “(IC50 CDK12 high ATP) to (Degradation DC50 CDK12) ratio” value stood at 556. In addition, the IC50 in experiment [2] is 36 nM. Also, the DC50 in experiment [3] worked out at 4.09 nM.
In the case of `OC[C@H]1CCCCN1c1nc(NCc2nnc(-c3ccccc3)[nH]2)n2ncc(Br)c2n1` [Example 71, [(2R)-1-(8-bromo-4-{[(5-phenyl-4H-1,2,4-triazol-3-yl)methyl]amino}pyrazolo[1,5-a][1,3,5]triazin-2-yl)piperidin-2-yl]methanol], the DC50 in experiment [1] turned out to be 4.34 nM; in experiment [3], 2.77 nM. In addition, the “(IC50 CDK12 high ATP) to (Degradation DC50 CDK12) ratio” value in experiment [1] is 998. The IC50 in experiment [2] came to 32 nM.
In the same order, the values of `OCC1COCCN1c1nc(NCc2nc3ccccc3[nH]2)n2ncc(Br)c2n1` (stereo not shown) [Example 67, (4-{4-[(1H-benzimidazol-2-ylmethyl)amino]-8-bromopyrazolo[1,5-a][1,3,5]triazin-2-yl}morpholin-3-yl)methanol] are 3.77 nM, 0.814 nM, 727 and 20.8 nM.
In the case of `Fc1cccc(-c2cnn3c(NCc4nc5ccccc5[nH]4)nc(N4CCOCC4)nc23)c1` [Example 91, N-[(1H-benzimidazol-2-yl)methyl]-8-(3-fluorophenyl)-2-(morpholin-4-yl)pyrazolo[1,5-a][1,3,5]triazin-4-amine], the DC50 was found to be 42.8 nM in experiment [1] and 19.6 nM in experiment [3]. Further, in experiment [1], the “(IC50 CDK12 high ATP) to (Degradation DC50 CDK12) ratio” value is recorded as greater than 133. In addition, in experiment [2], the IC50 stood at 105 nM.
On the same counts, the results for `FC(F)(F)Oc1cccc(-c2cnc(CNc3nc(N4CCOCC4)nc4c(Br)cnn34)[nH]2)c1` [Example 82, 8-bromo-2-(morpholin-4-yl)-N-({5-[3-(trifluoromethoxy)phenyl]-1H-imidazol-2-yl}methyl)pyrazolo[1,5-a][1,3,5]triazin-4-amine] are 22.3 nM, 14.2 nM, 41 and 85.2 nM.
In the same order, the values of `c1ccc2[nH]c(CNc3nc(N4CCOCC4)nc4c(C5CC5)cnn34)nc2c1` [Example 92, N-[(1H-benzimidazol-2-yl)methyl]-8-cyclopropyl-2-(morpholin-4-yl)pyrazolo[1,5-a][1,3,5]triazin-4-amine] are 2.36 nM, 0.381 nM, 1378 and 12 nM.
On to `Fc1ccc(-c2cnc(CNc3nc(N4CCOCC4)nc4c(Br)cnn34)[nH]2)cc1` [Example 66, 8-bromo-N-{[5-(4-fluorophenyl)-1H-imidazol-2-yl]methyl}-2-(morpholin-4-yl)pyrazolo[1,5-a][1,3,5]triazin-4-amine], for which the DC50 in experiment [1] came out at 130 nM; in experiment [3], 2.45 nM. Besides, the “(IC50 CDK12 high ATP) to (Degradation DC50 CDK12) ratio” value in experiment [1] is greater than 44. In experiment [2], the IC50 worked out at 230 nM.
Regarding `Fc1ccccc1-c1cnc(CNc2nc(N3CCOCC3)nc3c(Br)cnn23)[nH]1` [Example 86, 8-bromo-N-{[5-(2-fluorophenyl)-1H-imidazol-2-yl]methyl}-2-(morpholin-4-yl)pyrazolo[1,5-a][1,3,5]triazin-4-amine], in experiment [1], the DC50 came to 3.95 nM and the “(IC50 CDK12 high ATP) to (Degradation DC50 CDK12) ratio” value is on record as 478. Also, the IC50 in experiment [2] was 14.4 nM. Also, the DC50 in experiment [3] came to 0.576 nM.
